As usually defined, the Kd is a measure of binding affinity in units of concentration. Low readings indicate higher affinity, high ones lower affinity.

Data on two molecules can be found in article PMC10214751, “Poaceae‐specific β‐1,3;1,4‐D‐glucans link jasmonate signalling to OsLecRK1‐mediated defence response during rice‐brown planthopper interactions” (Plant Biotechnology Journal, 2023).

This experiment concerns the target T1, OsLecRK1 (MBP-OsLecRK1-His) (Oryza sativa, UniProt Q7FAZ3).
T1 construct: gene LECRK1; recombinant MBP-OsLecRK1-His fusion, purified; MBP and His tags kept; RED-NHS labelled
T1 sequence (Q7FAZ3 20-813 limits assumed): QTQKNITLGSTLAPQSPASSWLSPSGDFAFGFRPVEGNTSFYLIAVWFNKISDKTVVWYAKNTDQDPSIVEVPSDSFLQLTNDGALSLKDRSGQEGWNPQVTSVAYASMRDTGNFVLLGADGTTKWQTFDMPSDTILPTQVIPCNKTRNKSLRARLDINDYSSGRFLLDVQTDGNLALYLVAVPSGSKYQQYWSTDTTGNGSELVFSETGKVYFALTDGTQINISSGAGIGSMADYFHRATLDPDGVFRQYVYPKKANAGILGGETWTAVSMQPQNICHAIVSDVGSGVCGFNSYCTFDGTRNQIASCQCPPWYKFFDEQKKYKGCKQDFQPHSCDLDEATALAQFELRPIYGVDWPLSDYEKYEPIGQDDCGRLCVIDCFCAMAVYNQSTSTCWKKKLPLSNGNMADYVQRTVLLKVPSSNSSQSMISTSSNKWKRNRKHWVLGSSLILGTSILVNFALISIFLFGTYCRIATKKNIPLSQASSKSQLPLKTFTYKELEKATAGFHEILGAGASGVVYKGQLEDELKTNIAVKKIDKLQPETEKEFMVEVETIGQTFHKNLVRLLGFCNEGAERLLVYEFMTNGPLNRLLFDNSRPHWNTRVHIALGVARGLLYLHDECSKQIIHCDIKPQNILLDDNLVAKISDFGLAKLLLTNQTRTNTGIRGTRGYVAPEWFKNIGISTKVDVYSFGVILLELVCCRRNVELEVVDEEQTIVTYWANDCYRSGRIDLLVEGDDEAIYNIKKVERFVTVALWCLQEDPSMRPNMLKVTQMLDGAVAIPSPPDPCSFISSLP
Nature of the experiment: microscale thermophoresis, RED-NHS labelled protein. The conditions noted are these: labelled protein in NHS buffer pH 8.2 (130 mM NaHCO3, 50 mM NaCl); ligand 1.5 nM to 50 μM. In kind it is binding. The text has this: microscale thermophoresis, RED-NHS labelled protein on OsLecRK1 (MBP-OsLecRK1-His) | MBP‐OsLecRK1‐His recombinant protein bound BGTRIA, BGTRIB, BGTETB, and BGTETC with high affinities
(Microscale thermophoresis detects binding through changes in fluorescence in a small temperature gradient.)

Molecule `OC[C@H]1O[C@@H](O[C@@H]2[C@@H](O)[C@H](O[C@H]3[C@H](O)[C@@H](O)C(O)O[C@@H]3CO)O[C@H](CO)[C@H]2O)[C@H](O)[C@@H](O)[C@@H]1O` (stereo partly drawn) [BGTRIA, 3^2‐β‐D‐glucosyl‐cellobiose] registered a Kd of 340 nM.
Take `OC[C@H]1O[C@@H](O[C@H]2[C@H](O)[C@@H](O)[C@H](O[C@H]3[C@H](O)[C@@H](CO)OC(O)[C@@H]3O)O[C@@H]2CO)[C@H](O)[C@@H](O)[C@@H]1O` (stereo partly drawn) [BGTRIB, 3^1‐β‐D‐cellobiosyl‐glucose]: the affinity, expressed as Kd, was 600 nM.
